Data taken from ChEMBL document CHEMBL4303084, “Identification of antiviral drug candidates against SARS-CoV-2 from FDA-approved drugs” (2020).
Starred links: 1 amine or outer side, 2 acyl side, 3 side chain; linkers in the order of their positions; H or OH if unused. Positions of bridges follow the written chain, without caps; N, C: chain ends. Non-standard residues stand in square brackets, D forms with d. Residues, ends and D or L forms follow the SMILES beside them. *: point of attachment. pTerphenylCO(4''-OnC5H11) = CCCCCOc1ccc(-c2ccc(-c3ccc(C(=O)*)cc3)cc2)cc1; Orn(4R-OH,5R-OH) = O=C([C@H](C[C@@H](O)[C@@H](O)N[*:3])N[*:1])[*:2]; hTyr(3S-OH,4S-OH) = N[C@H](C(=O)O)[C@H](O)[C@@H](O)c1ccc(O)cc1; Pro(3S-OH,4S-Me) = C[C@H]1CN[C@H](C(=O)O)[C@H]1O; Hyp = O=C(O)[C@@H]1C[C@@H](O)CN1

How the values were obtained:
[1] = Cell viability measured by CellTiter-Glo assay in Vero cells at MOI 0.05 after 72hr; settings: chlorocebus sabaeus
[2] = test system: SARS-CoV-2; assay: microbe, parasite or virus in culture; assay type: functional, organism-based, Chlorocebus sabaeus; settings: Severe acute respiratory syndrome coronavirus 2, Vero, 24 h
[3] = Selectivity index for antiviral vs cytotoxic activity in Vero cells (CC50/IC50); settings: monkey

| SMILES | CC50 at 72 h ([1]; vero) | IC50 [2] | selectivity ratio ([3]; Vero cells) | CC50 at 72 h ([1]; Vero cells) | selectivity ratio ([3]; vero) |
| --- | --- | --- | --- | --- | --- |
| CC(C)(C)c1ccc(C(=O)CCCN2CCC(OC(c3ccccc3)c3ccccc3)CC2)cc1 [EBASTINE] | 15.4 µM | – | – | – | – |
| CCN(CC)CCOc1ccc2c(c1)C(=O)c1cc(OCCN(CC)CC)ccc1-2 [TILORONE] | – | 4.09 µM | 4.81 | 19.7 µM | – |
| C[C@@H]1O[C@@H](O[C@H]2C[C@@H](O)[C@]3(CO)[C@H]4[C@H](O)C[C@]5(C)[C@@H](C6=CC(=O)OC6)CC[C@]5(O)[C@@H]4CC[C@]3(O)C2)[C@H](O)[C@H](O)[C@H]1O [OUABAIN OCTAHYDRATE] | – | < 0.097 µM | 516 | > 50 µM | – |
| Cc1cc(Nc2ncc(Cl)c(Nc3ccccc3S(=O)(=O)C(C)C)n2)c(OC(C)C)cc1C1CCNCC1 [CERITINIB] | – | 2.86 µM | 2.39 | 6.84 µM | – |
| CCN(CC)CCOc1ccc(C(O)(Cc2ccc(Cl)cc2)c2ccc(C)cc2)cc1 (centres undefined) [TRIPARANOL] | – | 7.05 µM | 2.09 | 14.7 µM | – |
| CC1=NN(c2ccc(C)c(C)c2)C(=O)/C1=N\Nc1cccc(-c2cccc(C(=O)O)c2)c1O [ELTROMBOPAG] | – | 8.27 µM | – | > 50 µM | – |
| Nc1ccc(/N=N/c2ccccc2)c(N)n1 [PHENAZOPYRIDINE] | – | 28 µM | – | > 50 µM | – |
| CCCCc1oc2ccc(NS(C)(=O)=O)cc2c1C(=O)c1ccc(OCCCN(CCCC)CCCC)cc1 [DRONEDARONE] | – | 3.92 µM | 2.23 | 8.75 µM | – |
| C[C@H]1O[C@@H](O[C@H]2[C@@H](O)C[C@H](O[C@H]3[C@@H](O)C[C@H](O[C@H]4CC[C@@]5(C)[C@H](CC[C@@H]6[C@@H]5C[C@@H](O)[C@]5(C)[C@@H](C7=CC(=O)OC7)CC[C@]65O)C4)O[C@@H]3C)O[C@@H]2C)C[C@H](O)[C@@H]1O [DIGOXIN] | – | 0.19 µM | 257 | > 50 µM | – |
| CC[C@@H](C(=O)[C@@H](C)[C@@H](O)[C@H](C)[C@@H]1O[C@@H]([C@@H](CC)C(=O)O)CC[C@@H]1C)[C@H]1O[C@]2(C=C[C@@H](O)[C@]3(CC[C@@](C)([C@H]4CC[C@](O)(CC)[C@H](C)O4)O3)O2)[C@H](C)C[C@@H]1C [SALINOMYCIN] | – | 0.24 µM | 211 | > 50 µM | – |
| CCC(CC)COC(=O)[C@H](C)N[P@](=O)(OC[C@H]1O[C@@](C#N)(c2ccc3c(N)ncnn23)[C@H](O)[C@@H]1O)Oc1ccccc1 | – | – | – | > 25 µM | – |
| Oc1c(Cl)cc(Cl)c(Cl)c1Cc1c(O)c(Cl)cc(Cl)c1Cl [HEXACHLOROPHENE] | – | 0.9 µM | 21.6 | 19.3 µM | – |
| COc1ccc2cc1Oc1ccc(cc1)C[C@H]1c3c(cc4c(c3Oc3cc5c(cc3OC)CCN(C)[C@@H]5C2)OCO4)CCN1C [CEPHARANTHINE] | – | 4.47 µM | 11.2 | > 50 µM | – |
| CCN1CCN(Cc2ccc(Nc3ncc(F)c(-c4cc(F)c5nc(C)n(C(C)C)c5c4)n3)nc2)CC1 [ABEMACICLIB] | – | 6.62 µM | – | > 50 µM | – |
| Cc1cccc(C)c1OCC(=O)N[C@@H](Cc1ccccc1)[C@@H](O)C[C@H](Cc1ccccc1)NC(=O)[C@H](C(C)C)N1CCCNC1=O [LOPINAVIR] | – | 9.12 µM | – | > 50 µM | – |
| CN(C)C(=O)C(CCN1CCC(O)(c2ccc(Cl)cc2)CC1)(c1ccccc1)c1ccccc1 [LOPERAMIDE] | – | – | – | 29.3 µM | – |
| CC(C)(C)c1cc(C(C)(C)C)c(NC(=O)c2c[nH]c3ccccc3c2=O)cc1O [IVACAFTOR] | – | 6.57 µM | 3.76 | 27.3 µM | – |
| O=C(Nc1cc(Cl)cc(Cl)c1O)c1c(O)c(Cl)cc(Cl)c1Cl [OXYCLOZANIDE] | – | 3.71 µM | – | > 50 µM | – |
| C[C@H]1O[C@@H](O[C@H]2[C@@H](O)C[C@H](O[C@H]3[C@@H](O)C[C@H](O[C@H]4CC[C@@]5(C)[C@H](CC[C@@H]6[C@@H]5CC[C@]5(C)[C@@H](C7=CC(=O)OC7)CC[C@]65O)C4)O[C@@H]3C)O[C@@H]2C)C[C@H](O)[C@@H]1O [DIGITOXIN] | – | < 0.23 µM | 214 | > 50 µM | – |
| CN(C)CCOc1ccc(/C(=C(/CCCl)c2ccccc2)c2ccccc2)cc1 [TOREMIFENE] | – | 3.58 µM | 2.82 | 10.1 µM | – |
| C[C@@H]1O[C@@H](O[C@@H]2C=C3CC[C@@H]4[C@H](CC[C@]5(C)[C@@H](c6ccc(=O)oc6)CC[C@]45O)[C@@]3(C)CC2)[C@H](O)[C@H](O)[C@H]1O [PROSCILLARIDIN] | – | 2.04 µM | 24.5 | > 50 µM | – |
| OC1(c2ccc(Cl)c(C(F)(F)F)c2)CCN(CCCC(c2ccc(F)cc2)c2ccc(F)cc2)CC1 [PENFLURIDOL] | – | 5.01 µM | 1.75 | 8.77 µM | – |
| Cc1c(-c2ccc(O)cc2)n(Cc2ccc(OCCN3CCCCCC3)cc2)c2ccc(O)cc12 [BAZEDOXIFENE] | – | – | – | 15 µM | – |

| SMILES | CC50 at 72 h ([1]; vero) | IC50 [2] | selectivity ratio ([3]; Vero cells) | CC50 at 72 h ([1]; Vero cells) | selectivity ratio ([3]; vero) |
| --- | --- | --- | --- | --- | --- |
| CCN(CC)CCCC(C)Nc1c2ccc(Cl)cc2nc2ccc(OC)cc12 (centres undefined) [QUINACRINE] | – | > 50 µM | – | 14.7 µM | 0.29 |
| CC/C(=C(/c1ccc(OCCN(C)C)cc1)c1cccc(O)c1)c1ccccc1 [DROLOXIFENE] | – | 6.6 µM | 2.4 | 15.8 µM | – |
| CC(C)=CCCC1(C)C=Cc2c(O)c3c(c(CC=C(C)C)c2O1)OC12C(=CC4CC1C(C)(C)OC2(C/C=C(/C)C(=O)O)C4O)C3=O (centres undefined) [DIHYDROGAMBOGIC ACID] | – | 13.4 µM | 0.74 | 9.85 µM | – |
| CN(C)C(=O)COC(=O)Cc1ccc(OC(=O)c2ccc(NC(=N)N)cc2)cc1 [CAMOSTAT] | – | > 50 µM | – | > 50 µM | – |
| c1ccc2c(c1)Sc1ccccc1N2CC1CN2CCC1CC2 (centres undefined) [MEQUITAZINE] | – | 7.28 µM | 3.76 | 27.3 µM | – |
| CC(=O)O[C@H]1C[C@H](O[C@H]2[C@@H](O)C[C@H](O[C@H]3[C@@H](O)C[C@H](O[C@H]4CC[C@@]5(C)[C@H](CC[C@@H]6[C@@H]5C[C@@H](O)[C@]5(C)[C@@H](C7=CC(=O)OC7)CC[C@]65O)C4)O[C@@H]3C)O[C@@H]2C)O[C@H](C)[C@H]1O[C@@H]1O[C@H](CO)[C@@H](O)[C@H](O)[C@H]1O [LANATOSIDE C] | – | > 50 µM | 1 | > 50 µM | – |
| CCc1nc(C(N)=O)c(Nc2ccc(N3CCC(N4CCN(C)CC4)CC3)c(OC)c2)nc1NC1CCOCC1 [GILTERITINIB] | – | 6.76 µM | 5.5 | 37.2 µM | – |
| O=C(Nc1ccc([N+](=O)[O-])cc1Cl)c1cc(Cl)ccc1O [NICLOSAMIDE] | – | – | – | > 50 µM | – |
| CCN(CC)CCCC(C)Nc1ccnc2cc(Cl)ccc12 (centres undefined) [CHLOROQUINE] | – | – | – | > 150 µM | – |
| CC1(C)C=Cc2c(c3c(c4c(=O)c(-c5ccc(O)cc5)coc24)OC(C)(C)CC3)O1 | – | 3.22 µM | 3.07 | 9.89 µM | – |
| CCN(CC)Cc1cc(Nc2ccnc3cc(Cl)ccc23)ccc1O [AMODIAQUINE] | – | 5.15 µM | – | > 50 µM | – |
| OC(c1cc(C(F)(F)F)nc2c(C(F)(F)F)cccc12)C1CCCCN1 (centres undefined) [MEFLOQUINE] | – | 4.33 µM | 3.22 | 14 µM | – |
| CCCCCOc1ccc(-c2ccc(-c3ccc(C(=O)N[C@H]4C[C@@H](O)[C@@H](O)NC(=O)[C@@H]5[C@@H](O)[C@@H](C)CN5C(=O)[C@H]([C@@H](C)O)NC(=O)[C@H]([C@H](O)[C@@H](O)c5ccc(O)cc5)NC(=O)[C@@H]5C[C@@H](O)CN5C(=O)[C@H]([C@@H](C)O)NC4=O)cc3)cc2)cc1 [ANIDULAFUNGIN] ({pTerphenylCO(4''-OnC5H11)}-[Orn(4R-OH,5R-OH)]T[Hyp][hTyr(3S-OH,4S-OH)]T[Pro(3S-OH,4S-Me)]; lactam 1-C) | – | 4.64 µM | 10.8 | > 50 µM | – |
| CC(C)=CCc1c2c(c3occ(-c4ccc(O)cc4)c(=O)c3c1O)C=CC(C)(C)O2 [OSAJIN] | – | 3.87 µM | 2.95 | 11.4 µM | – |
| CCN(CC)CCOc1ccc(C(=C(Cl)c2ccccc2)c2ccccc2)cc1 [CLOMIPHENE] | – | 5.36 µM | 2.8 | 15 µM | – |
| C=CC(=O)Nc1cc(Nc2nccc(-c3cn(C)c4ccccc34)n2)c(OC)cc1N(C)CCN(C)C [OSIMERTINIB] | – | 3.26 µM | 4.05 | 13.2 µM | – |
| CCCCCCO[C@@H](C)c1cccc(-c2csc(NC(=O)c3cc(Cl)c(/C=C(\C)C(=O)O)c(Cl)c3)n2)c1OC [LUSUTROMBOPAG] | – | 3.78 µM | 3.87 | 14.6 µM | – |
| CC(C)C(=O)OCC(=O)[C@@]12O[C@H](C3CCCCC3)O[C@@H]1C[C@H]1[C@@H]3CCC4=CC(=O)C=C[C@]4(C)[C@H]3[C@@H](O)C[C@@]12C [CICLESONIDE] | – | 4.33 µM | 11.6 | > 50 µM | – |
| CCCCCC(=O)O[C@]1(C(C)=O)CC[C@H]2[C@@H]3CCC4=CC(=O)CC[C@]4(C)[C@H]3CC[C@@]21C [HYDROXYPROGESTERONE CAPROATE] | – | 6.3 µM | 7.93 | > 50 µM | – |
| CSc1ccc2c(c1)N(CCC1CCCCN1C)c1ccccc1S2 (centres undefined) [THIORIDAZINE] | – | 6.69 µM | 2.39 | 16 µM | – |
| C1CCC(C(CC2CCCCN2)C2CCCCC2)CC1 (centres undefined) [PERHEXILINE] | – | 6.38 µM | 1.36 | 8.67 µM | – |
| COc1ccc2cc1Oc1ccc(cc1)C[C@H]1c3cc(c(OC)cc3CCN1C)Oc1c(OC)c(OC)cc3c1[C@H](C2)N(C)CC3 [FANCHININ] | – | 3 µM | 4.97 | 14.9 µM | – |
| COc1cc2c3cc1Oc1c(OC)c(OC)cc4c1[C@@H](Cc1ccc(O)c(c1)Oc1ccc(cc1)C[C@@H]3N(C)CC2)N(C)CC4 [BERBAMINE] | – | 7.87 µM | 6.35 | > 50 µM | – |
